{"source": "patent US12186337B2", "about": "(priority 2009, dated 2025)", "conditions": "pH 10", "data": [{"smiles": "O=NO", "note": "[sodium nitrite]", "values": [{"measurement": "pH of 10% solution at 25° C.", "value": 7.9}]}]}
